Test [1] addresses CDK7/cyclin H/MAT1 complex (Homo sapiens (Human), UniProt P50613). Kind of test: In vitro enzymatic inhibitory activity test, CDK7. In kind it is biochemical. Conditions: Caliper mobility shift, 180 min at 27° C.
The target in another test is CDK2/cyclin E1 complex (Homo sapiens (Human), UniProt P24941). Kind of test: In vitro enzymatic inhibitory activity test, CDK2. In kind it is biochemical. Conditions: Caliper mobility shift, 180 min at 27° C.
The next test has as its target CDK9/CyclinT1 (Homo sapiens (Human), UniProt P50750). Kind of test: In vitro enzymatic inhibitory activity test, CDK9. Conditions: Caliper mobility shift, 180 min at 27° C. In kind it is biochemical.
For test [2], the target named is CDK12(aa686-1082)/cyclin K complex (Homo sapiens (Human), UniProt Q9NYV4). Kind of test: In vitro enzymatic inhibitory activity test, CDK12. Conditions: Caliper mobility shift, 180 min at 27° C. It counts as biochemical.
A further test relates to HCC70 cells. Put plainly: Cell bioactivity detection (CyQuant), HCC70. In kind it is cell-based. Conditions: human breast cancer cells HCC70, 72 hours. In a few lines: (§1)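 A2780 or HCC70 cells (2000/well, RPMI 1640 + 10% FBS) were seeded overnight, then treated for 72 h at 37° C, 5% CO2 with compound: top 10 μM, 1:4 dilutions, 9 points, 0.2% DMSO. Viable cell number was measured by CyQuant Direct nucleic-acid staining (≥60 min, 37° C) on an Acumen reader at 488 nm excitation, and IC50 was calculated.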

A further test has as its system A2780 cells. Kind of test: Cell bioactivity detection (CyQuant), A2780. It counts as cell-based, human. Conditions: ovarian carcinoma cells A2780, 72 hours. The procedure, abridged:
as §1

Sequence of CDK9/CyclinT1 (P50750 whole entry, species assumed, the tested form may be a part): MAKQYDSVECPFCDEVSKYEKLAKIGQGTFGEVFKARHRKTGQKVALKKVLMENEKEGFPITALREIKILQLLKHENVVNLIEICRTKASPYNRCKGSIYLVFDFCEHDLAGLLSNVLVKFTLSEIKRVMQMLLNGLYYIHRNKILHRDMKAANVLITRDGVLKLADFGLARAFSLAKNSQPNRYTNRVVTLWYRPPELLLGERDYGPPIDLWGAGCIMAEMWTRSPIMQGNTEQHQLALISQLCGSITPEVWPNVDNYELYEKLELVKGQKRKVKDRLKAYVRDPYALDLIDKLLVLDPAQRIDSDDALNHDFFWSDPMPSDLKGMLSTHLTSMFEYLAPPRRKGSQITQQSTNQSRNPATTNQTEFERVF
Sequence of CDK9/CyclinT1 (O60563 whole entry partner, species assumed, the tested form may be a part): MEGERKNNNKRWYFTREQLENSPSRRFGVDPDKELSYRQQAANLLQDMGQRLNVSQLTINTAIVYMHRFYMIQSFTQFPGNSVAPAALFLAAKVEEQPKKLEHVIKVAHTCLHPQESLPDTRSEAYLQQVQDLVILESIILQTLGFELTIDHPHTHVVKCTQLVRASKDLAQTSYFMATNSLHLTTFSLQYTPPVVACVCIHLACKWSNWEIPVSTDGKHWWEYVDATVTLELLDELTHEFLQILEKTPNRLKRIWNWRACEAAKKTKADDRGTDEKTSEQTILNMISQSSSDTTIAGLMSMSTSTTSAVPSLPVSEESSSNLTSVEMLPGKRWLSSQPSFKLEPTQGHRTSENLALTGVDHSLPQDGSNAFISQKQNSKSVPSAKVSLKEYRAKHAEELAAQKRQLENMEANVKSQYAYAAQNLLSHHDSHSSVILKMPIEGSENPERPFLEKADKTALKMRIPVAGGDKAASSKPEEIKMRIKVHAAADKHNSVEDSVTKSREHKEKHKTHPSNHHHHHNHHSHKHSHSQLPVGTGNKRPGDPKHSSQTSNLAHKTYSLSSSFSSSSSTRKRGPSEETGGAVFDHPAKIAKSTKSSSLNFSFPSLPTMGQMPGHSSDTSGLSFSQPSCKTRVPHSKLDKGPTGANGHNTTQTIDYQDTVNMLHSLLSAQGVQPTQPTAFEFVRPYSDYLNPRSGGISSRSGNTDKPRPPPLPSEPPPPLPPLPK
Sequence of CDK12(aa686-1082)/cyclin K complex (Q9NYV4 686-1082, species assumed): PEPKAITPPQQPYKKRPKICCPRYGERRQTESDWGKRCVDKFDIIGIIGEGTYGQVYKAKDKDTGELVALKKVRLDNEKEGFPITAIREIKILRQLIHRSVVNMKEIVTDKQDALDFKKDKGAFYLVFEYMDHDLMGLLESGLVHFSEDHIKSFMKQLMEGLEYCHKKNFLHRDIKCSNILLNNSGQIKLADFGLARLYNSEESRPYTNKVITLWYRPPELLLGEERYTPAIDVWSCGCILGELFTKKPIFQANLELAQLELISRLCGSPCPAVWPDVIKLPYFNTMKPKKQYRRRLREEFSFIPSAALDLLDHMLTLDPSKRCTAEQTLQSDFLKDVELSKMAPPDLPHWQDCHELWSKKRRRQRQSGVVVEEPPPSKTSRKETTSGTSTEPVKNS
Sequence of CDK12(aa686-1082)/cyclin K complex (O75909 whole entry partner, species assumed, the tested form may be a part): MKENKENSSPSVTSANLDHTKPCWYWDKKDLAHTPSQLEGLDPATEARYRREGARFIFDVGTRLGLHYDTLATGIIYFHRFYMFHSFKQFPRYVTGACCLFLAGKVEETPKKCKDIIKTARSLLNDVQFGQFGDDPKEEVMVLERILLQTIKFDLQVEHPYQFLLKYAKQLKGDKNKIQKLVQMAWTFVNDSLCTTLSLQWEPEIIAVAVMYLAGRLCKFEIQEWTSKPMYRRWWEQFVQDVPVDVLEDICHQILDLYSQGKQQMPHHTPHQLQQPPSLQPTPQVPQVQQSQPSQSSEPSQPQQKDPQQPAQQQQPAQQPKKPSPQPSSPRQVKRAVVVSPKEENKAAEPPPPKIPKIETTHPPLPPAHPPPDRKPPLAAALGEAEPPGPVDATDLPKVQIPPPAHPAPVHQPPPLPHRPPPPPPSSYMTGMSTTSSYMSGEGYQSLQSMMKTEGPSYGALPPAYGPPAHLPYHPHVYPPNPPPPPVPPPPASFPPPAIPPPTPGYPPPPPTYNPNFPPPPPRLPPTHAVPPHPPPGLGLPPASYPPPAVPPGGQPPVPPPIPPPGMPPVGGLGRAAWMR
Sequence of CDK7/cyclin H/MAT1 complex (P50613 whole entry, species assumed): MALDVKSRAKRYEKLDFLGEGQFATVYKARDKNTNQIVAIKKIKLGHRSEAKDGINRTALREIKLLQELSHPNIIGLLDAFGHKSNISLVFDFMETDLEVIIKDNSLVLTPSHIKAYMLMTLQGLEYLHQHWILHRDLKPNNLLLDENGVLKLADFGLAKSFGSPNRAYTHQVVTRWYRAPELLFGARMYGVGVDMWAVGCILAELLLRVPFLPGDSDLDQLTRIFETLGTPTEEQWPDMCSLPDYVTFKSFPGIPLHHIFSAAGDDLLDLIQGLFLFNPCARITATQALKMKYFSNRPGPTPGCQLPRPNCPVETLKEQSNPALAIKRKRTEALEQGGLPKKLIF
Sequence of CDK7/cyclin H/MAT1 complex (P51946 whole entry partner, species assumed): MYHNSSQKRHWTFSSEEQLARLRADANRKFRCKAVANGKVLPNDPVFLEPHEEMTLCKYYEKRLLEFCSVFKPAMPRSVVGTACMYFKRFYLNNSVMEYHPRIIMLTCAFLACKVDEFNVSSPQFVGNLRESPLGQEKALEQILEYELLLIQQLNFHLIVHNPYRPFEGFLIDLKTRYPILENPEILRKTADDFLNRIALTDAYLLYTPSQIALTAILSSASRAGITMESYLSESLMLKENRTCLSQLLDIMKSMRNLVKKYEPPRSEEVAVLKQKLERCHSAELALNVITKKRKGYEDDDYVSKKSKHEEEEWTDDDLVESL
Sequence of CDK7/cyclin H/MAT1 complex (P51948 whole entry partner, species assumed): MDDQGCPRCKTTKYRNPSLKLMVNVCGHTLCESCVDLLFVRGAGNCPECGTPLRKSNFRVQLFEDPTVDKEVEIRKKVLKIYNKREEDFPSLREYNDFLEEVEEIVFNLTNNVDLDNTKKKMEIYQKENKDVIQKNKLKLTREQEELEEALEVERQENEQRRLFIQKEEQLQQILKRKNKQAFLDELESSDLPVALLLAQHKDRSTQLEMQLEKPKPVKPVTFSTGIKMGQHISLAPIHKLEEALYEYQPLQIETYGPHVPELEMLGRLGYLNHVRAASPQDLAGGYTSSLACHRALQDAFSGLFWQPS

Consider `C[C@H]1COCCN1c1ccc2c(-c3nc(N[C@@H]4CNC[C@H](F)C4)ncc3C(F)(F)F)c[nH]c2n1` [Compound 74], for which the IC50 (as a rule, the concentration that gives 50% inhibition) in test [1] is 0.0102 µM; at CDK2/cyclin E1 complex, 27.3 µM; on CDK9/CyclinT1 it was > 50 µM; in test [2] it was 12 µM; in the test with HCC70 cells it was 0.199 µM; in the test on A2780 cells, 0.177 µM.

Regarding `C[C@@H]1COCCN1c1ccc2c(-c3nc(N[C@H]4CCCNC4)ncc3C(F)(F)F)c[nH]c2n1` [Compound 19, 4-(6-((R)-3-methylmorpholinyl)-1H-pyrrolo[2,3-b]pyridin-3-yl)-N—((S)-piperidin-3-yl)-5-(trifluoromethyl)pyrimidine-2-amine], the IC50 was 0.159 µM in test [1]; > 10 µM on CDK2/cyclin E1 complex; > 10 µM on CDK9/CyclinT1; 8.72 µM in test [2]; 0.22 µM in the test on HCC70 cells (Homo sapiens, HCC70, 72 h); 0.185 µM in the test with A2780 cells (Homo sapiens, A2780, 72 h).

For the compound `CC1(C)CC[C@H](Nc2ncc(C(F)(F)F)c(-c3c[nH]c4nc(N5CCOCC5)ccc34)n2)CN1` [Compound 60, (S)—N-(6,6-dimethylpiperidin-3-yl)-4-(6-morpholinyl-1H-pyrrol[2,3-b]pyridin-3-yl)-5-(trifluoromethyl)pyrimidine-2-amine], the IC50 was 0.00879 µM in test [1]; > 10 µM at CDK2/cyclin E1 complex; 8.07 µM on CDK9/CyclinT1; > 10 µM in test [2]; 0.475 µM with HCC70 cells (Homo sapiens, HCC70, 72 h); 0.036 µM in the test with A2780 cells (Homo sapiens, A2780, 72 h).

Take `FC(F)(F)c1cnc(N[C@H]2CCCNC2)nc1-c1c[nH]c2nc(N3CCN(C4COC4)CC3)ccc12` [Compound 24, (S)-4-(6-(4-(oxetan-3-yl)piperazin-1-yl)-1H-pyrrolo[2,3-b]pyridin-3-yl)-N-(piperidin-3-yl)-5-(trifluoromethyl)pyrimidine-2-amine]: the IC50 in test [1] was found to be 0.0174 µM; at CDK2/cyclin E1 complex it was 8.5 µM; at CDK9/CyclinT1, 5.25 µM; in test [2], 1.97 µM; with HCC70 cells (Homo sapiens, HCC70, 72 h), 0.072 µM; in the test with A2780 cells (Homo sapiens, A2780, 72 h) it was 0.11 µM.

For `FC(F)(F)c1cnc(N[C@H]2CCCNC2)nc1-c1c[nH]c2nc(N3CC4COCC4C3)ccc12` (stereo partly drawn) [Compound 5, N—((S)-piperidin-3-yl)-4-(6-(tetrahydro-1H-furan[3,4-c]pyrrol-5(3H)-yl)-1H-pyrrolo[2,3-b]pyridin-3-yl)-5-(trifluoromethyl)pyrimidine-2-amine], the IC50 in test [1] was 0.0121 µM; at CDK2/cyclin E1 complex, 2.25 µM; on CDK9/CyclinT1, 0.907 µM; in test [2], 1.02 µM; with HCC70 cells (Homo sapiens, HCC70, 72 h) it was 0.019 µM; with A2780 cells (Homo sapiens, A2780, 72 h), 0.017 µM.
